Data as given in patent US9302999B2, “Substituted triazoles as herbicides” (E. I. DU PONT DE NEMOURS AND COMPANY, priority 2012, dated 2016).

Experiments:
[1] = test system: foxtail, green (green foxtail, Setaria viridis); experiment: Test E pre-/postemergence: foxtail, green; assay type: in vivo; conditions: Preemergence, scale 0 to 100
Excerpt: (§1) Seeds of plant species selected from corn (Zea mays), soybean (Glycine max), velvetleaf (Abutilon theophrasti), lambsquarters (Chenopodium album), poinsettia, wild (wild poinsettia, Euphorbia heterophylla), pigweed, palmer (palmer pigweed, Amaranthus palmeri), waterhemp (common waterhemp, Amaranthus rudis), smartweed (ladysthumb smartweed, Polygonum persicaria), surinam grass (Brachiaria decumbens), crabgrass, large (large crabgrass, Digitaria sanguinalis), crabgrass, Brazil (Brazilian crabgrass, Digitaria horizontalis), panicum, fall (fall panicum, Panicum dichotomiflorum), foxtail, giant (giant foxtail, Setaria faberii), foxtail, green (green foxtail, Setaria viridis), goosegrass (Eleusine indica), johnsongrass (Sorghum halepense), ragweed (common ragweed, Ambrosia elation), barnyardgrass (Echinochloa crus-galli), sandbur (southern sandbur, Cenchrus echinatus), arrowleaf sida (Sida rhombifolia), ryegrass, Italian (Italian ryegrass, Lolium multiflorum), dayflower, (VA) (Virginia dayflower, Commelina virginica), field bindweed (Convolvulus arvensis), cocklebur (common cocklebur, Xanthium strumarium), morningglory (Ipomoea coccinea), nightshade (eastern black nightshade, Solanum ptycanthum), kochia (Kochia scoparia), nutsedge, yellow (yellow nutsedge, Cyperus esculentus) and beggarticks (hairy beggarticks, Bidens pilosa) were planted into a silt loam soil and treated preemergence with test chemicals formulated in a non-phytotoxic solvent mixture which included a surfactant. At the same time, plants selected from these crop and weed species were planted in pots containing a growing medium comprising spaghnum peat moss, vermiculite, wetting agent and starter nutrients and treated with postemergence applications of some of the test chemicals formulated in the same manner. Plants ranged in height from 2 to 18 cm for postemergence treatments (1- to 4-leaf stage).
(§2) Treated plants and controls were maintained in a greenhouse for 14 to 21 days, after which time all species were compared to controls and visually evaluated. Plant response ratings, summarized in Table E, are based on a scale of 0 to 100 where 0 is no effect and 100 is complete control. A dash (-) response means no test result.

[2] = test system: arrowleaf sida (Sida rhombifolia); experiment: Test E pre-/postemergence: arrowleaf sida; assay type: in vivo; conditions: scale 0 to 100
Excerpt: as §1, §2

[3] = test system: waterhemp (common waterhemp, Amaranthus rudis); experiment: Test E pre-/postemergence: waterhemp; assay type: in vivo; conditions: scale 0 to 100
Excerpt: as §1, §2

soybean (Glycine max) = experiment: Test F pre-/postemergence: soybean; assay type: in vivo
Excerpt: (§3) Seeds of plant species selected from corn (Zea mays), soybean (Glycine max), velvetleaf (Abutilon theophrasti), lambsquarters (Chenopodium album), poinsettia, wild (wild poinsettia, Euphorbia heterophylla), pigweed, palmer (palmer pigweed, Amaranthus palmeri), waterhemp (common waterhemp, Amaranthus rudis), surinam grass (Brachiaria decumbens), crabgrass, Brazil (Brazilian crabgrass, Digitaria horizontalis), panicum, fall (fall panicum Panicum dichotomiflorum), crabgrass, large (large crabgrass, Digitaria sanguinalis), foxtail, giant (giant foxtail, Setaria faberii), foxtail, green (green foxtail Setaria viridis), goosegrass (Eleusine indica), ragweed (common ragweed, Ambrosia elatior), barnyardgrass (Echinochloa crus-galli), sandbur (southern sandbur, Cenchrus echinatus), arrowleaf sida (Sida rhombifolia), ryegrass, Italian (Italian ryegrass, Lolium multiflorum), dayflower, VA (Virginia (VA) dayflower, Commelina virginica), field bindweed (Convolvulus arvensis), cocklebur (common cocklebur, Xanthium strumarium), morningglory (Ipomoea coccinea), nightshade (eastern black nightshade, Solanum ptycanthum), kochia (Kochia scoparia), nutsedge, yellow (yellow nutsedge, Cyperus esculentus), johnsongrass (Sorghum halepense), smartweed (ladysthumb smartweed, Polygonum persicaria), and beggarticks (hairy beggarticks, Bidens pilosa), were planted into a silt loam soil and treated preemergence with test chemicals formulated in a non-phytotoxic solvent mixture which included a surfactant. At the same time, plants selected from these crop and weed species and also pigweed (Amaranthus retroflexus), waterhemp_RES1 (ALS/Triazine resistant common waterhemp, Amaranthus rudis) and waterhemp_RES2 (ALS/HPPD resistant common waterhemp, Amaranthus rudis) were planted in pots containing a planting medium comprising spaghnum peat moss, vermiculite, wetting agent and starter nutrients treated with postemergence applications of some of the test chemicals formulated in the same manner. Plants ranged in height from 2 to 18 cm for postemergence treatments (1- to 4-leaf stage).
as §2

[4] = test system: beggarticks (hairy beggarticks, Bidens pilosa); experiment: Test F pre-/postemergence: beggarticks; assay type: in vivo
Excerpt: as §3, §2

[5] = test system: lambsquarters (Chenopodium album); experiment: Test F pre-/postemergence: lambsquarters; assay type: in vivo; conditions: Preemergence
Excerpt: as §3, §2

Waterhemp = experiment: Test C preemergence: waterhemp; assay type: in vivo, Amaranthus rudis; conditions: scale 0 to 100, 0 no effect, 100 complete control
Oilseed Rape = experiment: Test C preemergence: oilseed rape; assay type: in vivo; conditions: scale of 0 to 100, 0 is no effect, 100 is complete control
Excerpt: Seeds of plant species selected from blackgrass (Alopecurus myosuroides), bromegrass, downy (downy bromegrass, Bromus tectorum), foxtail, green (green foxtail, Setaria viridis), ryegrass, Italian (Italian ryegrass, Lolium multiflorum), winter wheat (Triticum aestivum), wild oat (Avena fatua), galium (catchweed bedstraw, Galium aparine), bermudagrass (Cynodon dactylon), surinam grass (Brachiaria decumbens), cocklebur (common cocklebur, Xanthium strumarium), corn (Zea mays), large crabgrass (Digitaria sanguinalis), woolly cupgrass (Eriochloa villosa), foxtail, giant (giant foxtail, Setaria faberii), goosegrass (Eleusine indica), johnsongrass (Sorghum halepense), kochia (Kochia scoparia), lambsquarters (Chenopodium album), morningglory (Ipomoea coccinea), nightshade (eastern black nightshade, Solanum ptycanthum), nutsedge, yellow (yellow nutsedge, Cyperus esculentus), pigweed (Amaranthus retroflexus), ragweed (common ragweed, Ambrosia elation), soybean (Glycine max), common (oilseed) sunflower (Helianthus annuus), Russian thistle (Salsola kali) and velvetleaf (Abutilon theophrasti) were planted into a blend of loam soil and sand and treated preemergence with test chemicals formulated in a non-phytotoxic solvent mixture which included a surfactant.
as §2, with “13” for “14”, “15” for “21”, “C,” for “E,”

[6] = Preemergence, 16 g ai/ha, scale 0 to 100 (0 no effect, 100 complete control)
[7] = Preemergence, 31 g ai/ha, scale 0 to 100 (0 no effect, 100 complete control)
[8] = Preemergence, 125 g ai/ha, scale 0 to 100
[9] = Preemergence, 62 g ai/ha, scale 0 to 100
[10] = 16 g ai/ha, scale 0 to 100 (0 no effect, 100 complete control)
[11] = 31 g ai/ha, scale 0 to 100 (0 no effect, 100 complete control)
[12] = Postemergence, 8 g ai/ha, scale 0 to 100
[13] = Postemergence, 16 g ai/ha, scale 0 to 100
[14] = Postemergence, 31 g ai/ha, scale 0 to 100
[15] = Postemergence, 62 g ai/ha, scale 0 to 100
[16] = Postemergence, 125 g ai/ha, scale 0 to 100

Cc1nn(-c2ccc(F)cc2)nc1Cc1ccnc(C(F)(F)F)c1 [Compound 16, 4-[[2-(4-fluorophenyl)-5-methyl-2H-1,2,3-triazol-4-yl]methyl]-2-(trifluoromethyl)pyridine]
Plant response rating: Foxtail, Green ([1]; 8 g ai/ha): 60
Plant response rating: Foxtail, Green ([1]; 16 g ai/ha): 90
Plant response rating: Foxtail, Green ([1]; 31 g ai/ha): 90
Plant response rating: Foxtail, Green ([1]; 62 g ai/ha): 100
Plant response rating: Foxtail, Green ([1]; 125 g ai/ha): 100
Plant response rating: Arrowleaf Sida ([2]; Preemergence, 8 g ai/ha): 0
Plant response rating: Arrowleaf Sida ([2]; Preemergence, 16 g ai/ha): 0
Plant response rating: Arrowleaf Sida ([2]; Preemergence, 31 g ai/ha): 0
Plant response rating: Arrowleaf Sida ([2]; Preemergence, 62 g ai/ha): 0
Plant response rating: Arrowleaf Sida ([2]; Preemergence, 125 g ai/ha): 35
Plant response rating: Waterhemp ([3]; Preemergence, 8 g ai/ha): 60
Plant response rating: Waterhemp ([3]; Preemergence, 16 g ai/ha): 70
Plant response rating: Waterhemp ([3]; Preemergence, 31 g ai/ha): 100
Plant response rating: Waterhemp ([3]; Preemergence, 62 g ai/ha): 100
Plant response rating: Waterhemp ([3]; Preemergence, 125 g ai/ha): 100

Cc1nn(-c2ccc(C(F)(F)F)cc2)nc1Cc1ccnc(C(F)(F)F)c1 [Compound 47, 4-[[5-methyl-2-[4-(trifluoromethyl)phenyl]-2H-1,2,3-triazol-4-yl]methyl]-2-(trifluoromethyl)pyridine]
Plant response rating: Foxtail, Green ([1]; 16 g ai/ha): 85
Plant response rating: Foxtail, Green ([1]; 31 g ai/ha): 100
Plant response rating: Foxtail, Green ([1]; 62 g ai/ha): 100
Plant response rating: Foxtail, Green ([1]; 125 g ai/ha): 100
Plant response rating: Foxtail, Green ([1]; 250 g ai/ha): 100
Plant response rating: Arrowleaf Sida ([2]; Postemergence, 250 g ai/ha): 85
Plant response rating: Arrowleaf Sida ([2]; Postemergence, 16 g ai/ha): 50
Plant response rating: Arrowleaf Sida ([2]; Postemergence, 31 g ai/ha): 60
Plant response rating: Arrowleaf Sida ([2]; Postemergence, 62 g ai/ha): 70
Plant response rating: Arrowleaf Sida ([2]; Postemergence, 125 g ai/ha): 80
Plant response rating: Arrowleaf Sida ([2]; Preemergence, 16 g ai/ha): 0
Plant response rating: Arrowleaf Sida ([2]; Preemergence, 31 g ai/ha): 20
Plant response rating: Arrowleaf Sida ([2]; Preemergence, 62 g ai/ha): 40
Plant response rating: Arrowleaf Sida ([2]; Preemergence, 125 g ai/ha): 60
Plant response rating: Arrowleaf Sida ([2]; Preemergence, 250 g ai/ha): 95
Plant response rating: Waterhemp ([3]; Postemergence, 250 g ai/ha): 95
Plant response rating: Waterhemp ([3]; Postemergence, 16 g ai/ha): 60
Plant response rating: Waterhemp ([3]; Postemergence, 31 g ai/ha): 70
Plant response rating: Waterhemp ([3]; Postemergence, 62 g ai/ha): 80
Plant response rating: Waterhemp ([3]; Postemergence, 125 g ai/ha): 85
Plant response rating: Waterhemp ([3]; Preemergence, 16 g ai/ha): 100
Plant response rating: Waterhemp ([3]; Preemergence, 31 g ai/ha): 100
Plant response rating: Waterhemp ([3]; Preemergence, 62 g ai/ha): 100
Plant response rating: Waterhemp ([3]; Preemergence, 125 g ai/ha): 100
Plant response rating: Waterhemp ([3]; Preemergence, 250 g ai/ha): 100

Cc1nn(-c2ccc(F)cc2)nc1Oc1ccnc(C(F)(F)F)c1 [Compound 129, 4-[[2-(4-fluorophenyl)-5-methyl-2H-1,2,3-triazol-4-yl]oxy]-2-(trifluoromethyl)pyridine]
Plant response rating: Foxtail, Green ([1]; 8 g ai/ha): 0
Plant response rating: Foxtail, Green ([1]; 16 g ai/ha): 60
Plant response rating: Foxtail, Green ([1]; 31 g ai/ha): 100
Plant response rating: Foxtail, Green ([1]; 62 g ai/ha): 100
Plant response rating: Foxtail, Green ([1]; 125 g ai/ha): 100
Plant response rating: Arrowleaf Sida ([2]; Preemergence, 8 g ai/ha): 0
Plant response rating: Arrowleaf Sida ([2]; Preemergence, 16 g ai/ha): 0
Plant response rating: Arrowleaf Sida ([2]; Preemergence, 31 g ai/ha): 0
Plant response rating: Arrowleaf Sida ([2]; Preemergence, 62 g ai/ha): 30
Plant response rating: Arrowleaf Sida ([2]; Preemergence, 125 g ai/ha): 30
Plant response rating: Waterhemp ([3]; Preemergence, 8 g ai/ha): 20
Plant response rating: Waterhemp ([3]; Preemergence, 16 g ai/ha): 35
Plant response rating: Waterhemp ([3]; Preemergence, 31 g ai/ha): 80
Plant response rating: Waterhemp ([3]; Preemergence, 62 g ai/ha): 100
Plant response rating: Waterhemp ([3]; Preemergence, 125 g ai/ha): 100

Fc1ccc(-n2nc(Cc3ccnc(C(F)(F)F)c3)c(OCC(F)(F)F)n2)cc1 [Compound 142]
Plant response rating, Soybean (soybean (Glycine max); [6]): 0
Plant response rating, Soybean (soybean (Glycine max); [7]): 0
Plant response rating, Soybean (soybean (Glycine max); [8]): 25
Plant response rating, Beggarticks [4, 6]: 0
Plant response rating, Beggarticks [4, 7]: 40
Plant response rating, Beggarticks [4, 9]: 65
Plant response rating, Beggarticks [4, 8]: 75
Plant response rating, Lambsquarters [5, 10]: 0
Plant response rating, Lambsquarters [5, 11]: 65
Plant response rating, Lambsquarters ([5]; 62 g ai/ha, scale 0 to 100): 98
Plant response rating, Lambsquarters ([5]; 125 g ai/ha, scale 0 to 100): 98

Cc1nn(-c2ccc(F)c(F)c2)nc1Oc1ccnc(C(F)(F)F)c1 [Compound 145]
Plant response rating, Soybean (soybean (Glycine max); [12]): 25
Plant response rating, Soybean (soybean (Glycine max); [13]): 35
Plant response rating, Soybean (soybean (Glycine max); [14]): 40
Plant response rating, Soybean (soybean (Glycine max); [15]): 50
Plant response rating, Soybean (soybean (Glycine max); [16]): 60
Plant response rating, Beggarticks [4, 12]: 10
Plant response rating, Beggarticks [4, 13]: 25
Plant response rating, Beggarticks [4, 14]: 30
Plant response rating, Beggarticks [4, 15]: 35
Plant response rating, Beggarticks [4, 16]: 45

CCCc1nn(-c2ccc(F)cc2)nc1Cc1ccnc(C(F)(F)F)c1 [Compound 153]
Plant response rating, Soybean (soybean (Glycine max); [6]): 0
Plant response rating, Soybean (soybean (Glycine max); [7]): 0
Plant response rating, Soybean (soybean (Glycine max); [8]): 5
Plant response rating, Soybean (soybean (Glycine max); Preemergence, 250 g ai/ha, scale 0 to 100): 25
Plant response rating, Beggarticks [4, 6]: 0
Plant response rating, Beggarticks [4, 7]: 25
Plant response rating, Beggarticks [4, 9]: 35
Plant response rating, Beggarticks [4, 8]: 65
Plant response rating, Waterhemp (Waterhemp; 125 g ai/ha): 100
Plant response rating, Oilseed Rape (Oilseed Rape; 31 g ai/ha): 90
Plant response rating, Oilseed Rape (Oilseed Rape; 62 g ai/ha): 95
Plant response rating, Lambsquarters [5, 10]: 0
Plant response rating, Lambsquarters [5, 11]: 65
Plant response rating, Lambsquarters ([5]; 62 g ai/ha, scale 0 to 100): 98
Plant response rating, Lambsquarters ([5]; 125 g ai/ha, scale 0 to 100): 98
Plant response rating, Lambsquarters ([5]; 250 g ai/ha, scale 0 to 100): 98

CCc1nn(-c2ccc(F)cc2)nc1Oc1ccnc(C(F)(F)F)c1 [Compound 166]
Plant response rating, Waterhemp (Waterhemp; 125 g ai/ha): 100
Plant response rating, Waterhemp (Waterhemp; 250 g ai/ha): 100
Plant response rating, Oilseed Rape (Oilseed Rape; 62 g ai/ha): 50

CCCc1nn(-c2ccc(C(F)(F)F)c(F)c2)nc1Oc1ccnc(C(F)(F)F)c1 [Compound 185]
Plant response rating, Oilseed Rape (Oilseed Rape; 62 g ai/ha): 85

CCOc1nn(-c2ccc(Br)cc2)nc1Cc1ccnc(C(F)(F)F)c1 [Compound 189]
Plant response rating, Waterhemp (Waterhemp; 125 g ai/ha): 100
Plant response rating, Oilseed Rape (Oilseed Rape; 62 g ai/ha): 70
